From patent US9187396B2, “Compositions and methods for the treatment of glomerulonephritis” (Avexxin AS, priority 2009, dated 2015)

How the values were obtained:
[1] = tested on: IIA-sPLA2 protein expression in mesangial cells; test: cytokine-stimulated sPLA2 protein expression and secretion, Western blot; assay type: cell-based, rat; conditions: IL-1β (1 nM), supernatants
Protocol: (§1) FIGS. 2A to 2C show the effect of the inhibitors of the examples on cytokine-stimulated sPLA2 protein (FIG. 2A) and mRNA (FIG. 2B) expression and promoter activity in mesangial cells. Quiescent cells were stimulated with either DMEM (−), or IL-1β (1 nM) in the absence (−) or presence of AKH-217 (etOH), vehicle control. In FIG. 2A, supernatants were taken for protein precipitation and precipitated proteins were separated by SDS-PAGE and subjected to a Western blot analysis using a monoclonal antibody against rat sPLA2. […] In FIG. 2B, cells were taken for RNA extraction and subjected to quantitative PCR analysis of rat IIA-sPLA2 and 18 S RNA. ΔΔCt values were calculated and results are expressed as % of maximal IL-1β-stimulated response and are means+S.D. (n=3). In FIG. 2C, cells were transfected with the sPLA2 promoter construct plus a plasmid coding for the Renilla luciferase. After transfection, cells were stimulated for 24 h with vehicle (−), IL-1β (1 nM), or IL-1β plus 10 μM of AKH-217. sPLA2 promoter activity was calculated and results are expressed as relative luciferase units (RLU) and are means±S.D. (n=3).
(§2) It has been previously shown that the cytokine-induced PGE2 formation in mesangial cells involves both sPLA2 and cPLA2 activation (Pfeilschifter et al., 1993), we then investigated the effect of the inhibitors above on sPLA2 protein and mRNA expressions. […]

[2] = tested on: IIA-sPLA2 mRNA expression in mesangial cells; test: cytokine-stimulated IIA-sPLA2 mRNA expression, quantitative PCR; assay type: cell-based, rat; conditions: IL-1β (1 nM)
Protocol: as §1, §2

[3] = tested on: rat IIA-sPLA2 promoter; test: sPLA2 promoter activity, luciferase reporter gene assay; assay type: cell-based; conditions: IL-1β (1 nM) plus 10 μM compound, 24 h
Protocol: as §1, §2

[4] = tested on: Nitric oxide (NO) formation in rat renal mesangial cells; test: cytokine-stimulated NO formation in mesangial cells (Griess Reaction assay); assay type: cell-based; conditions: IL-1β (1 nM), supernatant
Protocol: Quiescent cells were stimulated with either DMEM (−), IL-1β (1 nM; +), in the absence or presence of the indicated concentrations of AKH-217, AVX002, or AACOCF3. Supernatants were collected and taken for nitric oxide (NO) quantification by using a Griess Reaction assay. Data are expressed as μM of NO in the supernatant and are means±S.D. (n=3).
To see whether this effect is due to altered gene transcription of iNOS, luciferase reporter gene assays were performed to measure iNOS promoter activity. A 4.5 kb fragment of the rat iNOS promoter was kindly provided by Dr. K. F. Beck (pharmazentrum frankfurt).

[5] = tested on: iNOS protein expression in mesangial cells; test: cytokine-stimulated iNOS protein expression, Western blot; assay type: cell-based, rat; conditions: IL-1β (1 nM)
Protocol: (§3) FIGS. 4A to 4C show the effect of the inhibitors of the examples on cytokine-stimulated iNOS protein (FIG. 4A) and mRNA (FIG. 4B) expression and promoter activity in mesangiai cells. Quiescent cells were stimulated with either vehicle (DMEM), IL-1β (1 nM), in the absence (−) or presence of the indicated concentrations (in μM) of AVX001 and AVX002. EtOH, vehicle control. In FIG. 4A, cells were taken for protein extraction and equal amount of. protein were separated by SDS-PAGE and subjected to a Western blot analysis using a polyclonal antibody against iNOS at a dilution of 1:2000. Data are representative of at least 3 independent experiments giving similar results. In FIG. 4B, cells were taken for RNA extraction and subjected to quantitative PCR analysis of rat iNOS and 18 S RNA. ΔΔCt values were calculated and results are expressed as % of maximal IL-1β response and are means±S.D (n=3). In FIG. 4C, cells were transfected with the rat iNOS promoter construct plus a plasmid coding for the Renilla luciferase. After transfection, cells were stimulated with vehicle (−), IL-1β (1 nM), or IL-1β plus 10 μM of AVX001. iNOS promoter activity was calculated and results are expressed as relative luciferase units (RLU) and are means±S.D.(n=3).
(§4) To see whether this effect is due to altered gene transcription of iNOS, luciferase reporter gene assays were performed to measure iNOS promoter activity. […]

[6] = tested on: rat iNOS promoter; test: iNOS promoter activity, luciferase reporter gene assay; assay type: cell-based; conditions: IL-1β (1 nM) plus 10 μM compound
Protocol: as §3, §4

[7] = tested on: mesangial cells; test: [3H]thymidine incorporation in mesangial cells (proliferation); assay type: cell-based, rat; conditions: insulin (100 ng/ml), IGF (50 ng/ml) or ATP (100 μM), 24 h
Protocol: FIGS. 5A and 5B show the effect of the inhibitors of the examples on [^3H]thymidine incorporation in mesangial cells. In FIG. 5A, quiescent cells were stimulated for 24 h with vehicle (DMEM), or 100 μM of ATP in the absence (−) or presence of the indicated concentrations of AVX001 or AVX002, in the presence of [^3H]thymidine. In FIG. 5B, cells were stimulated for 24 h with insulin (100 ng/ml) or IGF (50 ng/ml) in the absence (−) or presence of 10 μM of AVX001 or AVX002, in the presence of [^3H]thymidine. Thymidine incorporated into DNA was determined and results are expressed as % of control and are means±S.D. (n=3). Glomerulonephritis is characterized in a first early phase by increased mesangial apoptosis which in a second phase is replaced by an opposite event, i.e. hyperproliferation of mesangial cells. Many previous studies have shown that quiescent mesangial cells in culture can re-enter the cell cycle when exposed to various growth factors, including PDGF, insulin, insulin-like growth factor (IGF), or extracellular nucleotides such as ATP and UTP. […] In the presence of either AKH217 or AVX002, agonist-stimulated [^3H]thymidine incorporation is reduced (FIGS. 5A and 5B). Similar data were also obtained when cells were stimulated with PDGF.

[8] = tested on: phospho-p65 (NFκB); test: IL-1β-stimulated NFκB activation, phospho-p65 Western blot; assay type: cell-based, rat; conditions: IL-1β (2 nM) 30 min, 10 μM compound pretreated 2 h
Protocol: FIGS. 6A to 6C show the effect of the inhibitors of the examples on IL-1β-stimulated NFκB activation in mesangial cells. In FIG. 6A, quiescent cells were stimulated for 30 min with either vehicle (DMEM), or IL-1β (2 nM) in the absence (−) or presence (+) of AVX001 or AVX002 (10 μM, pretreated 2 h). Thereafter, cell lysates were separated by SDS-PAGE and subjected to a Western blot analysis using a polyclonal antibody against phospho-p65 (NFκB) (upper panel), HuR as a loading control (middle panel), and IκB (lower panel). Data in FIG. 6A show duplicates of one representative experiments. FIGS. 6B and 6C show the densitometric evaluation of NFkB and IkB bands.
NFkB activation was measured by Western blot analyses by detecting the amount of phospho-p65 which represents the active transcription factor subunit.

## CC/C=C\C/C=C\C/C=C\C/C=C\CC/C=C/CSCC(=O)C(F)(F)F [AKH-217]
[1]
  effect on IIA-sPLA2 protein expression and secretion: able to reduce
[2]
  effect on IIA-sPLA2 mRNA expression: able to reduce
[3]
  effect on IL-1β-stimulated sPLA2 promoter activity: completely reduced
[4]
  effect on IL-1β-stimulated NO formation: reduced in a dose-dependent manner
[5]
  effect on IL-1β-induced iNOS protein expression: down-regulated
[6]
  effect on IL-1β-stimulated iNOS promoter activity: completely lost
[7]
  effect on agonist-stimulated [3H]thymidine incorporation: reduced
[8]
  effect on IL-1β-induced increase of phospho-p65: reduced
